Reference: ChEMBL document CHEMBL5523716, “Discovery of novel EGFR-PROTACs capable of degradation of multiple EGFR-mutated proteins” (Eur J Med Chem, 2024)
The source made the active and inactive calls. The rule behind the calls is not given here.

How the values were obtained:
[1] = Metabolic stability in human liver microsomes assessed as intrinsic clearance at 1 uM incubated upto 60 mins in presence of NADPH by LC-MS/MS analysis; type: ADME, Microsome; conditions: read-out: CLH
[2] = Antitumor activity against human H1975-TM cells xenografted in BALB/c mouse assessed as tumor growth inhibition at 10 mg/kg,ip once daily for 14 days relative to control; type: functional; conditions: 336 h, time 14 day, read-out: TGI
[3] = Metabolic stability in monkey liver microsomes assessed as intrinsic clearance at 1 uM incubated upto 60 mins in presence of NADPH by LC-MS/MS analysis; type: ADME, Macaca mulatta, Microsome; conditions: rhesus monkey, read-out: CLH
NCI-H1975 [4] = test: Antitumor activity against human NCI-H1975 cells xenografted in BALB/c mouse assessed as tumor growth inhibition at 20 mg/kg,ip once daily for 22 days relative to control; type: functional; conditions: NCI-H1975, 528 h, time 22 day, read-out: TGI
H1975-TM [5] = test: Antitumor activity against human H1975-TM cells xenografted in BALB/c mouse assessed as downregulation of EGFR phosphorylation in tumor at 5 to 20 mg/kg,ip once daily for 14 days by Western blot analysis; type: functional, organism-based; conditions: dose 5-20 mg/kg, time 14.0 day
[6] = molecular target: von Hippel-Lindau disease tumor suppressor/Epidermal growth factor receptor (Homo sapiens, UniProt P00533+P40337, T790M/L858R); test: PROTAC activity at VHL/EGFR L858R/T790M mutant in human NCI-H1975 cells assessed as induction of EGFR degradation incubated for 72 hrs by Western blot analysis; type: cell-based
[7] = Tmax in SPF ICR mouse at 2 mg/kg,iv measured upto 24 hrs by LC-MS/MS analysis; type: ADME, organism-based; conditions: in vivo
NCI-H1975 [8] = test: Antiproliferative activity against human NCI-H1975 cells harboring EGFR L858R/T790M double mutant assessed as inhibition of cell growth incubated for 48 to 72 hrs by CCK-8 assay; type: functional, cell-based
[9] = Metabolic stability in dog liver microsomes assessed as intrinsic clearance at 1 uM incubated upto 60 mins in presence of NADPH by LC-MS/MS analysis; type: ADME, Canis lupus familiaris, Microsome; conditions: read-out: CLH
A-431 = test: Antiproliferative activity against human A-431 cells harboring EGFR wild type assessed as inhibition of cell growth incubated for 48 to 72 hrs by CCK-8 assay; type: functional, cell-based
[10] = Metabolic stability in monkey liver microsomes assessed as elimination rate constant at 1 uM incubated upto 60 mins in presence of NADPH by LC-MS/MS analysis; type: ADME, Macaca mulatta, Microsome; conditions: rhesus monkey
[11] = test system: von Hippel-Lindau disease tumor suppressor/Epidermal growth factor receptor (Homo sapiens), P00533+P40337 [L858R,T790M]; test: PROTAC activity at VHL/EGFR L858R/T790M mutant in human NCI-H1975 cells assessed as induction of EGFR degradation at 2 uM by Western blot analysis; type: cell-based; conditions: TDE = time-dependent effect
H1975-TM [12] = test: Antitumor activity against human H1975-TM cells xenografted in BALB/c mouse assessed as downregulation of ERK phosphorylation in tumor at 5 to 20 mg/kg,ip once daily for 14 days by Western blot analysis; type: functional, organism-based; conditions: dose 5-20 mg/kg, time 14.0 day
[13] = test system: von Hippel-Lindau disease tumor suppressor/Epidermal growth factor receptor (Homo sapiens), P00533+P40337 [L858R,T790M,C797S]; test: PROTAC activity at VHL/EGFR L858R/T790M/C797S mutant in human H1975-TM cells assessed as induction of EGFR degradation at 2.5 uM Western blot analysis; type: cell-based; conditions: TDE = time-dependent effect
[14] = test system: von Hippel-Lindau disease tumor suppressor/Epidermal growth factor receptor (Homo sapiens), P00533+P40337 [UNDEFINED MUTATION]; test: PROTAC activity at VHL/EGFR Del19 mutant in human HCC827 cells assessed as induction of EGFR degradation at 100 nM by Western blot analysis; type: cell-based; conditions: TDE = time-dependent effect
[15] = Metabolic stability in human liver microsomes assessed as half-life at 1 uM incubated upto 60 mins in presence of NADPH by LC-MS/MS analysis; type: ADME, Microsome
[16] = test system: von Hippel-Lindau disease tumor suppressor/Epidermal growth factor receptor (Homo sapiens), P00533+P40337 [UNDEFINED MUTATION]; test: PROTAC activity at VHL/EGFR Del19 mutant in human HCC827 cells assessed as induction of EGFR degradation at 100 nM preincubated with MG-132 for 6 hrs followed by compound treatment for 48 hrs by Western blot analysis; type: cell-based
[17] = test system: von Hippel-Lindau disease tumor suppressor/Epidermal growth factor receptor (Homo sapiens), P00533+P40337 [L858R,T790M]; test: PROTAC activity at VHL/EGFR L858R/T790M mutant in human NCI-H1975 cells assessed as induction of EGFR degradation at 100 nM preincubated with MLN-4924 for 6 hrs followed by compound treatment for 48 hrs by Western blot analysis; type: cell-based
[18] = Toxicity in BALB/c mouse xenografted with human HCC827 cells assessed as change in body weight at 1.25 to 5 mg/kg,ip once daily for 28 days; type: organism-based; conditions: in vivo, 672 h, dose 1.25-5 mg/kg, time 28 day
[19] = test system: von Hippel-Lindau disease tumor suppressor/Epidermal growth factor receptor (Homo sapiens), P00533+P40337 [UNDEFINED MUTATION]; test: PROTAC activity at VHL/EGFR Del19 mutant in human HCC827 cells assessed as downregulation of EGFR phosphorylation incubated for 72 hrs by Western blot analysis; type: cell-based
[20] = Cmax in SPF ICR mouse at 2 mg/kg,iv measured upto 24 hrs by LC-MS/MS analysis; type: ADME, organism-based; conditions: in vivo
[21] = molecular target: von Hippel-Lindau disease tumor suppressor/Epidermal growth factor receptor (Homo sapiens, UniProt P00533+P40337); test: PROTAC activity at VHL/EGFR Del19 mutant in human HCC827 cells assessed as induction of EGFR degradation incubated for 72 hrs by Western blot analysis; type: cell-based
[22] = MRT (0 to infinity) in SPF ICR mouse at 5 mg/kg,ip measured upto 24 hrs by LC-MS/MS analysis; type: ADME, organism-based; conditions: in vivo
[23] = MRT (0 to t) in SPF ICR mouse at 2 mg/kg,iv measured upto 24 hrs by LC-MS/MS analysis; type: ADME, organism-based; conditions: in vivo
[24] = test system: von Hippel-Lindau disease tumor suppressor/Epidermal growth factor receptor (Homo sapiens), P00533+P40337 [L858R,T790M]; test: PROTAC activity at VHL/EGFR L858R/T790M mutant in human NCI-H1975 cells assessed as maximal EGFR degradation at 0.07 to 5 uM incubated for 72 hrs by Western blot analysis relative to control; type: cell-based; conditions: dose 0.07-5 µM
[25] = Antitumor activity against human H1975-TM cells xenografted in BALB/c mouse assessed as tumor growth inhibition at 20 mg/kg,ip once daily for 14 days relative to control; type: functional; conditions: 336 h, time 14 day, read-out: TGI
[26] = AUC (0 to infinity) in SPF ICR mouse at 2 mg/kg,iv measured upto 24 hrs by LC-MS/MS analysis; type: ADME, organism-based; conditions: in vivo
[27] = Metabolic stability in rat liver microsomes assessed as elimination rate constant at 1 uM incubated upto 60 mins in presence of NADPH by LC-MS/MS analysis; type: ADME, Microsome
[28] = test system: von Hippel-Lindau disease tumor suppressor/Epidermal growth factor receptor (Homo sapiens), P00533+P40337 [L858R,T790M,C797S]; test: PROTAC activity at VHL/EGFR L858R/T790M/C797S mutant in human H1975-TM cells assessed as downregulation of ERK phosphorylation incubated for 48 hrs by Western blot analysis; type: cell-based
HCC827 = test: Antitumor activity against human HCC827 cells xenografted in BALB/c mouse assessed as tumor growth inhibition at 2.5 mg/kg,ip once daily for 28 days relative to control; type: functional; conditions: HCC827, 672 h, time 28 day, read-out: TGI

In the case of `CCN(CC)C/C=C/C(=O)Nc1cc2c(Nc3ccc(F)c(Cl)c3)ncnc2cc1OCc1cn(CCCCCCCC(=O)N[C@H](C(=O)N2C[C@H](O)C[C@H]2C(=O)N[C@H](C)c2ccc(-c3scnc3C)cc2)C(C)(C)C)nn1`, the microsomal CLint at 1 µM [1] is reported as 84 µL/min/mg, the inhibition in vivo at 10 mg/kg [2] is reported as 34% and the microsomal CLint at 1 µM [3] is reported as 36.6 µL/min/mg. The inhibition in vivo at 20 mg/kg (NCI-H1975 [4]) was 85%, the Activity (H1975-TM [5]) was “Active” and the DC50 [6] was 0.25 µM. The Tmax [7] was 4.8 min, the IC50 (NCI-H1975 [8]) was 0.49 µM and the microsomal CLint at 1 µM [9] was 17.8 µL/min/mg. For the same molecule, the IC50 (A-431) was over 20 µM, the k el at 1 h, 1 µM [10] was 0.0003 s⁻¹ and the Activity [11] was “Tde”. The Activity (H1975-TM [12]) was “Active”, the Activity [13] was “Tde” and the Activity [14] was “Tde”. For the same molecule, the half-life at 1 µM [15] was 16.5 min, the Activity [16] was “inactive” and the Activity [17] was “inactive”. The Activity [18] was “Non-Toxic”, the Activity [19] was “Dose-Dependent Effect” and the Cmax [20] was 7.83 µg/mL. For the same molecule, the DC50 [21] was 0.0179 µM, the MRT inf [22] was 173 min and the MRT last at 24 h [23] was 17.4 min. For the same molecule, the Emax [24] was 94%, the inhibition in vivo at 20 mg/kg [25] was 50% and the AUC(0-inf) [26] was 2.37 µg·h/mL. For the same molecule, the k el at 1 h, 1 µM [27] was 6.67e-05 s⁻¹, the Activity [28] was “Dose-Dependent Effect” and the inhibition in vivo at 2.5 mg/kg (HCC827) was 67%.
